{"source": "patent US20050101542A1", "about": "“Combination therapy for controlling appetites” (Regents of the University of California, priority 2002, published 2005)", "key": {"[1]": {"experiment": "Liver OEA content after OEA injection in wild-type and PPAR-α null mice (HPLC/MS)", "assay_type": "in vivo, mouse", "conditions": "1 h after OEA 5 mg kg^−1 i.p."}, "Astrocyte": {"system": "Astrocyte", "experiment": "[14C]oleate oxidation to ketone bodies in astrocytes", "assay_type": "cell-based, rat", "conditions": "30 min incubation", "excerpt": "This example illustrates the effect of OEA on fat metabolism and methods for studying the same. Oleoylethanolamide (OEA) decreases body weight not only by suppressing appetite, but also by possibly enhancing body fat catabolism. The effects of OEA on fatty acid oxidation in major body-fat burning tissues (soleus muscle, liver, cultured cardiac myocytes and astrocytes) was examined. […] In addition, OEA induces a significant mobilization of triacylglycerol stores from primary white adipose tissue cells. Table 4 details the methods and effects of OEA on fatty acid oxidation in these cells. Structure-activity relationship experiments provide evidence that the effect of OEA on skeletal muscle fatty acid oxidation is specific (FIG. 8)."}, "[2]": {"experiment": "Acute feeding experiments in free-feeding mice (C57BL/6J, wild-type, PPARα-null)", "assay_type": "in vivo, mouse", "procedure": "Acute experiments. Drugs or appropriate vehicles (saline, for CCK-8 and d-fenfluramine; dimethylsulfoxide/saline, 70/30, for all other agents; 4 ml-kg^−1; i.p.) were administered at 5:00-5:30 PM to free-feeding mice, which were habituated to the experimental setting."}, "[3]": {"experiment": "Circulating OEA levels after OEA administration (HPLC/MS)", "assay_type": "in vivo", "conditions": "rat, plasma, ip; 1 hr after 5 mg per kg i.p., rats; baseline 10.1±1.1", "procedure": "HPLC/MS analyses. Plasma was prepared from blood obtained by cardiac puncture (Giuffrida, et al., Anal. Biochem., 280:87-93 (2000)) and CSF was collected from the cisterna magna using a 27G ½ needle (Precisionglide, USA). FAEs and NAPE were extracted from tissues with methanol/chloroform and fractionated by column chromatography (Giuffrida, et al., “Lipid Second Messengers” (ed. Laychock, S. G. & Rubin, R. P.) 113-133 (CRC Press LLC, Boca Raton, Fla., 1998)). FAEs were quantified by HPLC/MS, using an isotope dilution method (Giuffrida, et al., Anal. Biochem., 280:87-93 (2000)). Individual NAPE species were identified and quantified by HPLC/MS, using an external standard method (Calignano, et al., Nature, 408:96-101 (2000)).\nOEA elicits hypophagia at physiologically relevant doses. […] Thus, the concentrations reached by OEA in blood during starvation can be sufficient to elicit notable behavioral responses."}, "human PPARγ": {"molecular_target": "T1, human PPARγ (Homo sapiens, UniProt P37231)", "T1 construct": "expressed in transfected cells; host or cells: HeLa (clonal reporter line HLR, stably transfected with pFA-PPARγ)", "T1 sequence (P37231 238-503 limits assumed)": "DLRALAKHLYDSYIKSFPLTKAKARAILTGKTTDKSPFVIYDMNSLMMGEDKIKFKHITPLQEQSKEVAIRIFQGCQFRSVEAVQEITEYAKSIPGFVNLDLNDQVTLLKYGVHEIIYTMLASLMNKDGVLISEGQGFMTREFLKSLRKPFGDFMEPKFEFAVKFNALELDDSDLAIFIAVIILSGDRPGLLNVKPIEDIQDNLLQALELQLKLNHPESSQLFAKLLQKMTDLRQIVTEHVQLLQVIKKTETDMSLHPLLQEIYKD", "experiment": "GAL4 chimeric receptor transactivation assay in HeLa cells, PPARγ", "assay_type": "cell-based", "procedure": "Transactivator plasmids pFA-PPARα, pFA-PPARδ, pFA-PPARγ and pFA-RXR, which encoded for the […] Of hPPARα ? ((499-1404), hPPARδ (412-1320), hPPARγ (610-1434) and hRXR (402-1389) fused to the DNA-binding domain (residues 1-147) Of yeast GAL4 under control of the human cytomegalovirus (CMV) promoter were generated. The plasmids contained a neomycin-resistance gene to provide stable selection with G418 (200 μg-ml^−1; Calbiochem). The HeLa cells were cultured in Dulbecco's-modified Eagles's medium (DMEM) supplemented with fetal bovine serum (10%). The cells were transfected with Fugene 6 (3 μl, Roche) Containing the pFR-luc plasmid (1 μg, Stratagene). Eighteen hours following transfection, the culture media was replaced with supplemented DMEM containing hygromycin (100 μg-ml^−1, Calbiochem). After 4 weeks in culture, the surviving clones were isolated and analyzed by luciferase assay. […] The cells were cultured in supplemented DMEM containing hygromycin and G418. For transactivation assays, cells were seeded in 6-well plates (50,000 cells per well) and incubated for 7 hours in supplemented DMEM containing hygromycin and G418, plus appropriate concentrations of test compounds. Dual-luciferase reporter assay system (Promega) and an MLX Microtiter® plate luminometer (Dynex) were used to determine luciferase activity in cell lysates. […]"}, "[4]": {"experiment": "Food intake in vagotomized or capsaicin-treated rats, Example 3", "assay_type": "in vivo, rat", "conditions": "rats; OEA 10, Wy-14643 40 mg kg^−1 i.p."}}}
{"molecule": "CCCCCCCC/C=C\\CCCCCCCC(=O)NCCO", "note": "[OEA, Z-2-hydroxyethyl octadec-9-enamide]", "values": [{"measurement": "Liver OEA content", "setting": "[1]; PPAR-α-null mice", "result": "251.2 ± 28.2", "unit": "pmol/g"}, {"measurement": "Liver OEA content", "setting": "[1]; wild-type mice", "result": "150.5 ± 19.7", "unit": "pmol/g"}, {"measurement": "Stimulatory effect of 10 μM OEA on [14C]oleate oxidation to ketone bodies", "setting": "Astrocyte", "result": "2 ± 6 (n = 3) %"}, {"measurement": "meal pattern analysis (eating latency, meal size, post-meal interval)", "setting": "[2]; C57BL/6J mice", "result": "essentially identical"}, {"measurement": "feeding in wild-type mice", "setting": "[2]; OEA 10 mg-kg^−1 i.p.", "result": "reduces feeding"}, {"measurement": "feeding in PPARα-deficient mice", "setting": "[2]; OEA 10, Wy-14643 40, d-fenfluramine 4 mg-kg^−1, CCK-8 25 μg-kg^−1, i.p.", "result": "absent and not"}, {"measurement": "concentration at 1 hr", "setting": "[3]", "result": "16.1 ± 2.6", "unit": "nM"}, {"measurement": "effect on PPARγ", "setting": "human PPARγ", "result": "no effect"}, {"measurement": "food intake after vagotomy or capsaicin treatment", "setting": "[4]", "result": "no effect"}]}
